# Several values for one entry are separate records, joined by “and”; a condition that tells them apart may be missing. Equal values may be shown once. Entries after “also recorded” stand apart in the source; their conditions may differ.
# What was measured:
# [1] = test system: MRSA (ATCC BAA-1762); conditions: MRSA (ATCC BAA1762); Matarlo et al. Biochemistry 2015; cited from earlier work
# [2] = target: T1, E. coli MenE(wt) (Escherichia coli, UniProt P37353); test: Isothermal titration calorimetry, wild-type MenE; format: binding
# T1 construct: His6 (N); made in house; host or cells: E. coli BL21(DE3) pLysS
# Protocol: (§1) ITC was performed using VP-ITC instrument at 22° C. Inhibitor (1 mM) and E. coli MenE(wt) (30 μM) were prepared in 20 mM NaHPO4, pH 7.4 buffer containing 150 mM NaCl and 1 mM MgCl2. From the injection syringe, the inhibitor was titrated into the sample cell containing 1.8 mL solution of MenE. The data were fit to a single-binding site model with the Origin software package.
# Next. the binding affinity of the 5 with E. coli MenE was deteremined using isothermal titration calorimetry (ITC).
# [3] = target: T2, E. coli MenE (K437A) (Escherichia coli, UniProt P37353, K437A); test: Isothermal titration calorimetry, MenE K437A lynchpin mutant; format: binding; conditions: ITC
# T2 construct: His6 (N); made in house; host or cells: E. coli BL21(DE3) pLysS
# T2 sequence (P37353 1-451 K437A): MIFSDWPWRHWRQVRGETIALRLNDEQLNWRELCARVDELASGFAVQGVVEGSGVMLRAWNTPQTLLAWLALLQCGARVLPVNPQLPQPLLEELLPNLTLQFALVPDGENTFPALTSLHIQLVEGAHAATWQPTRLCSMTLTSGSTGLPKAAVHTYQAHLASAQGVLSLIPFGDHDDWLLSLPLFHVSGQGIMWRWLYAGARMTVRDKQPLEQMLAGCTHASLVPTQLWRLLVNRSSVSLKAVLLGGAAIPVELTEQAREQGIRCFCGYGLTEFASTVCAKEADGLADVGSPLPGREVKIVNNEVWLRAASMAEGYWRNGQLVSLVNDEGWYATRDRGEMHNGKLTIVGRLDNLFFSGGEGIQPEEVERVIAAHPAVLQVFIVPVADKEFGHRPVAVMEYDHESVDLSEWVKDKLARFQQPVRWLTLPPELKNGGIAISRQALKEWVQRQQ
# Protocol: Based on the nucleotide sequence of MenE (from E. coli strain K-12), the forward primer with the sequence of 5′-[…]-3′ and T7 reverse primer were designed, synthesized, and used to introduce the K437A mutation in E. coli MenE. High-fidelity Phusion polymerase (New England BioLabs) was used for standard polymerase chain reaction amplification and mutagenesis.
# as §1
# To probe for these interactions experimentally. the binding affinity of m-phenyl ether analogue 5 to wild-type E. coli MenE and the K437A mutant were compared.
# [4] = target: T3, E. coli MenE (Escherichia coli, UniProt P37353); test: MenE-MenB coupled enzyme inhibition assay (DHNA-CoA production at 392 nm); format: biochemical; conditions: for IC50: ecMenE 50 nM, OSB 60 μM, ATP 240 μM, CoA 240 μM, pH 7.4; for inhibition of MenE (in words): MenE coupled assay
# T3 construct: His6 (N); made in house; host or cells: E. coli BL21(DE3) pLysS
# Protocol: Enzyme inhibition studies were performed in 20 mM NaHPO4 buffer (pH 7.4) containing 150 mM NaCl and 1 mM MgCl2 using a […] coupled assay in which MenE is rate-limiting. […] Reactions were initiated by addition of ecMenE (50 nM), and the production of DHNA-CoA was monitored at 392 nm (ε392=4000 M^−1 cm^−1).
# With these linker analogues in hand, their inhibition of E. coli MenE using the previously reported MenE-Meng coupled assay was evaluated (Lu, X. et al. Bioorg. Med. Chem. Lett. 2008, 18, 5963). Consistent with predictions from the docking experiments, all but one of the analogues inhibited MenE, albeit with modest IC50 values compared to OSB-AMS (1) (Table 2).
# T1 sequence (P37353 whole entry): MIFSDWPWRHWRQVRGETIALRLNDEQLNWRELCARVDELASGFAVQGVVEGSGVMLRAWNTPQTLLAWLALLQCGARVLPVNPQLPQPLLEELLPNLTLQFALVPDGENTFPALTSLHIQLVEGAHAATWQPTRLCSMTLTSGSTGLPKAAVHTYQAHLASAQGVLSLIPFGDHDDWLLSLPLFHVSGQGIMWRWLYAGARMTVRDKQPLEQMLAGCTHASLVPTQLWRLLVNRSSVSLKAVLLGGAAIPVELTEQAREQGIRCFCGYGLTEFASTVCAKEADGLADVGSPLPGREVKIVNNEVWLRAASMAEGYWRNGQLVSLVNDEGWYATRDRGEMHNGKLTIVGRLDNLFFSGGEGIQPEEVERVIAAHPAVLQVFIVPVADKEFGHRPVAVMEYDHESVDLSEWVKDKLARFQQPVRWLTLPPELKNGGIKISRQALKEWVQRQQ
# T3 sequence (P37353 whole entry): as above
Compound,MIC [1] [µg/mL],"Kd ([2]; ITC, 22° C, wild-type E. coli MenE)",Kd [3] [nM],IC50 [4] [nM],binding in the ITC assay (in words) ([2]; E. coli MenE),inhibition of MenE (in words) [4]
Nc1ncnc2c1ncn2[C@@H]1O[C@H](COS(=O)(=O)NC(=O)CCC(=O)c2ccccc2C(=O)O)[C@@H](O)[C@H]1O [OSB-AMS (1)],31.25,–,–,–,–,–
Nc1ncnc2c1ncn2[C@@H]1O[C@H](COc2cccc(CCC(=O)c3ccccc3C(=O)O)c2)[C@@H](O)[C@H]1O [compound 5],–,244 nM and 249 nM,244,8100 ± 900,–,–
"Nc1ncnc2c1ncn2[C@@H]1O[C@H](COc2ccc(CCC(=O)c3ccccc3C(=O)O)cc2)[C@@H](O)[C@H]1O [compound 6, 5′-O-([2-(Carboxyl)phenyl]3-(3-hydroxyphenyl)propannyl)adenosine]",–,–,–,> 200000,no binding,no inhibition; also recorded: did not inhibit MenE
Nc1ncnc2c1ncn2[C@@H]1O[C@H](COc2cc(CCC(=O)c3ccccc3C(=O)O)cc(C(F)(F)F)c2)[C@@H](O)[C@H]1O [compound 8],–,–,–,26500 ± 2300,–,slightly weaker inhibition
